According to US5266594A, “Inhibitors of nitric oxide synthase and use thereof to prevent glutamate neurotoxicity” (priority 1992, dated 1993):

Tests used:
[1] = biological target: brain NOS (cerebellar NOS) (Rattus norvegicus, UniProt P29476); assay: inhibition of NOS activity, conversion of [^3 H]arginine to [^3 H]citrulline, cerebellar homogenates/supernatants in vitro
Text: (§1) Inhibitors of NOS are compounds which compete for the substrate binding site of NOS or other sites on the enzyme, and include both reversible and irreversible inhibitors. The present invention contemplates the use of any physiologically acceptable inhibitor which inhibits NOS activity. The effectiveness of a compound, and its relative potency as an NOS inhibitor, can be tested and routinely determined by measuring inhibition of NOS activity by monitoring the conversion of arginine to citrulline by NOS in, for example, cerebellar homogenates. A reduction in citrulline formation indicates inhibitory activity of the compound. The percent reduction in citrulline formation, compared to the amount of citrulline formed in the absence of the compound being tested, indicates the potency of the compound as an NOS inhibitor.
Rat cerebella were homogenized in 10 vols. (w/v) […] Tris (pH 7.4), 2 mM EDTA. Homogenates were centrifuged at 10,000×g for 15 minutes at 4° C. Supernatant preparations were used in the enzyme assays. Cerebellar tissue was dialyzed (Spectra/Por, 10,000 MWCO, EDTA-treated cellulose dialysis tubing) against 20 mM Tris (pH 7.4), 2 mM EDTA (300 ml×2) for 24 hours at 4° C.
Cerebellar homogenates were incubated with arginine derivatives for one hour at 4° C., and dialyzed overnight. Aliquots (25 μg protein) were assayed for NOS activity before and after dialysis.
(§2) NOS activity was measured by monitoring the conversion of [^3 H]arginine to [^3 H]citrulline as described by Bredt and Snyder (Proc. Natl. Acad. Sci USA (1990) 87682-685). Briefly, enzyme assays contained 25 μl of soluble tissue, 50 μl of […] [^3 H]arginine and 1 mM NADPH, and 25 μl of 3 mM CaCl2. After a 15 minute incubation at room temperature, the assays were terminated with 3 ml of 20 mM Hepes (pH 5.5) with 2 mM EDTA, and were applied to 0.5 ml columns of Dowex AG50WX8 (Na^+ form). [^3 H]citrulline was quantified by liquid scintillation spectroscopy of the 3 ml flow-through.
(§3) Accordingly, the effects of 2, 4 and 24 hours of preincubations of cerebellar supernatants (FIG. 2A) and activated macrophage homogenates (FIG. 2B) with NO2 Arg were examined. The preincubation was conducted at 4° C. since NOS is unstable at higher temperature for long periods of time. Enzymatic incubation was conducted for only 5 minutes to minimize any reaction of the inhibitor with the enzyme in the course of the incubation procedure.
Cerebellar supernatants were made as described in Example 1.

NOS protein = assay: Western blot of NOS protein in brain extracts after i.p. administration; type: in vivo, rat; conditions: i.p. administration of 5 and 50 mg/kg
Description: To determine whether NO2 Arg administration alters levels of NOS protein, Western blot analysis of brain extracts were performed following the i.p. administration of both 5 and 50 mg/kg of NO2 Arg. Soluble cerebellar homogenates (100 μg) were separated on a 7.5% SDS-polyacrylamide gel and transferred to nitrocellulose. Lanes were incubated overnight with affinity purified NOS antibody (1:2500) at room temperature, and bands were visualized with an alkaline phosphatase linked secondary antibody. […] Therefore, the loss of NOS activity following peripheral administration of NO2 Arg is not attributed to inhibition of the synthesis of enzyme protein.

cGMP formation = cGMP formation in cortical cell cultures (RIA); type: cell-based, rat; conditions: 300 μM NMDA (plus 10 μM glycine), 1 minute; 100 μM NO2 Arg, 1 mM L-Arg, 100 units of SOD, 500 μM Hb
Description: Primary dissociated cell cultures were prepared from fetal rats (13-to 14-day gestation for cortex and caudate-putamen cultures and 19- to 20-day gestation for hippocampal cultures). […] Dissociated cells were plated at a density of 3-4×10^5 cells per well in polyornithine-coated 15-mm multiwell plates. After 4 days the cells were treated with 10 μg of 5-fluoro-2'-deoxyuridine to prevent proliferations of noneuronal cells. Cells were maintained in MEM/5% horse serum/2 mM glutamine in 8% CO2 /humidified atmosphere at 37° C. The medium was changed twice weekly. Mature neurons (3-4 weeks) were used.
For determination of cGMP the cells were washed three times with CSS. […] After ether extraction, cGMP levels were determined by RIA.
Data are means ±SEM (n=6-8).
Data are means ±SEM (n=8-12).

NOS = conditions: cited from earlier work
[2] = system: macrophage NOS (activated macrophage homogenates); assay: inhibition of NOS activity in activated macrophage homogenates in vitro; type: biochemical
Text: as §1, §2, §3
Macrophages were activated as described by Tayeh and Marletta (J. Biol. Chem. (1989) 264:19654-19658) with 3.5 ng/ml LPS from E. coli and 5 units/ml recombinant murine γ-interferon for 24 hours at 37° C. Cells were homogenized in 20 mM Hepes (pH 7.4).

[3] = system: brain-endothelial and macrophage NOS; conditions: cited from earlier work
[4] = system: brain or macrophage enzyme (NOS); assay: NOS inhibition and brain/macrophage selectivity of arginine, nitroarginine and guanidinoalkanoic acid analogs; type: biochemical
brain NOS = brain NOS activity in cerebellar homogenates after i.p. administration; type: in vivo, rat (Sprague-Dawley)
Description: Adult male rats (Sprague-Dawley, 3 per group) were injected intraperitoneally (i.p.) twice daily with 5 mg/kg or 50 mg/kg of NO2 Arg, MeArg, arginine or vehicle twice a day for four consecutive days. The animals were sacrificed by decapitation 14 hours following the last injection.
Cerebellar homogenates were used to determine NOS activity.

Sequence of brain NOS (cerebellar NOS) (P29476 whole entry): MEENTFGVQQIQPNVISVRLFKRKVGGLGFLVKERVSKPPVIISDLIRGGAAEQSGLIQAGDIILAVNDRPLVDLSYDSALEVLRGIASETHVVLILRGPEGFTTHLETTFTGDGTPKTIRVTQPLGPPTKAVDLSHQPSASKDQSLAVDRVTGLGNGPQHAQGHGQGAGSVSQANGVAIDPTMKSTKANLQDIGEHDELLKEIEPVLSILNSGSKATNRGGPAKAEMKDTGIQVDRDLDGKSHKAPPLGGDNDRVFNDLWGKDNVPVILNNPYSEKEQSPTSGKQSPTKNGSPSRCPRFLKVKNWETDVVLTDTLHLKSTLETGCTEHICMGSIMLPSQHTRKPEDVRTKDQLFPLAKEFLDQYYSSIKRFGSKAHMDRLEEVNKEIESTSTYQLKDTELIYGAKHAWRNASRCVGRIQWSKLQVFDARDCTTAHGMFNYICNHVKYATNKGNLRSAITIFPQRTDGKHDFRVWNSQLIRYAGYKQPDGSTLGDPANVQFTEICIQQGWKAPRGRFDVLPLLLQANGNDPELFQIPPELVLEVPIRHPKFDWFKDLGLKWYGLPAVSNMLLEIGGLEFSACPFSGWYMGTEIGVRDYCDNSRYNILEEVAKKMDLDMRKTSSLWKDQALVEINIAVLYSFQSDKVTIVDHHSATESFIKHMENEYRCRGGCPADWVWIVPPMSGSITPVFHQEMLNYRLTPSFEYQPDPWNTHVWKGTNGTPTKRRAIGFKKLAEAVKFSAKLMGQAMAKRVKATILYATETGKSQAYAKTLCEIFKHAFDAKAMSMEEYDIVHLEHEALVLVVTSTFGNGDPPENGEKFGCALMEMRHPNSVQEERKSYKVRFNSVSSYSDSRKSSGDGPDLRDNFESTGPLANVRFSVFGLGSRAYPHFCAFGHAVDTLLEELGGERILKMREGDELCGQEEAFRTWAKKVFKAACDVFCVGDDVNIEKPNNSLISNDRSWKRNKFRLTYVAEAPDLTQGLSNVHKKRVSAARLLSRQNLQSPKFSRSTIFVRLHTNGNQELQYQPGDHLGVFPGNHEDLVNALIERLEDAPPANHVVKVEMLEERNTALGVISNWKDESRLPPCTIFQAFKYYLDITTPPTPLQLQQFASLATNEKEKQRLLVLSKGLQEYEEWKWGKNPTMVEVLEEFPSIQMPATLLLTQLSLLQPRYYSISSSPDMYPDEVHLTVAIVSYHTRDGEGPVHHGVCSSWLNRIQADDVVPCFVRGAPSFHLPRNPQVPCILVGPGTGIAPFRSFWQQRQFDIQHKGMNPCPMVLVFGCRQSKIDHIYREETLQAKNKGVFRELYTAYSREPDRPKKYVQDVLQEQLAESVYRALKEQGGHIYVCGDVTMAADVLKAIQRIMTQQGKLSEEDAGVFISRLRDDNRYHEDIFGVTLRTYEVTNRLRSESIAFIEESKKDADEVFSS

Compound: N=C(NCCC[C@H](N)C(=O)O)N[N+](=O)[O-] [NO2 Arg, L-N^ω -nitroarginine]
- effect of preincubation on potency of inhibition ([1]; 2 hour preincubation at 4° C., FIG. 2A): increases the potency of inhibition
- nature of inhibition of cerebellar NOS in vitro ([1]; FIG. 1, before and after dialysis): irreversible inhibition
- relative potency as inhibitor of NOS activity ([1]; cerebellar supernatant preparations, FIG. 1): more potent inhibitor of NOS activity than MeArg
- augmentation of potency by preincubation ([1]; preincubation for 24 hours at 4° C.): about 15 times
- alterations in NOS protein (NOS protein): No alterations in NOS protein were observed
- effect on NMDA stimulation of cGMP formation (cGMP formation): antagonized
- Ki (NOS; Dwyer et al. (1991), read-out: Ki, inhibition of NOS activity of purified enzyme preparations): 200 nM
- mode of inhibition of NOS (NOS; Moore (1990)): competitive inhibitor of NOS
- potency in inhibiting the macrophage enzyme compared to the cerebellar enzyme ([2]; 24 hours of incubation): about 7%
- enhancement of potency after preincubation ([2]; preincubation with the enzyme, 24 hours, FIG. 2B): only a minimal enhancement of potency
- potency as NOS inhibitor relative to cerebellar preparations ([2]; supernatant preparations of activated macrophage cultures, FIG. 2B): less potent inhibitor of NOS than in cerebellar preparations
- inhibition of brain-endothelial versus macrophage enzyme ([3]; Gross et al. (1990)): weaker inhibitor of the macrophage enzyme
- greater potency in inhibiting brain-endothelial than macrophage NOS ([3]; incubations at 37° C. for about 1/2 hour, 30 min): 10-300 fold
- inhibition potency among nitroarginine analogs [4]: most potent inhibitor
- inhibition of brain NOS (brain NOS; 5 mg/kg i.p. twice daily, four consecutive days, 14 hours after last injection): about 50%
- inhibition of enzyme activity in the brain after peripheral administration (brain NOS; 5 mg/kg, peripheral administration): markedly inhibits enzyme activity in the brain
- inhibition of brain NOS enzyme activity (brain NOS; 50 mg/kg i.p. twice daily, four consecutive days, 14 hours after last injection): 95%
- inhibition of NOS activity, repeated administration for 7 days versus 4 days (brain NOS; 7 days): no greater inhibition of NOS activity than 4 days of treatment
- nature of inhibition of NOS in vivo (brain NOS; FIG. 3, before and after dialysis): irreversible inhibition
- effect of dialysis on enzyme activity (brain NOS; crude supernatant from treated animals dialyzed for 24 hours): only slightly increases enzyme activity
- time for which brain NOS activity does not return to normal levels (brain NOS; following 90% inhibition with 50 mg/kg): at least 5 days
- reduction of enzyme activity (brain NOS; single injection of 50 mg/kg): 50%
